Data taken from PubChem BioAssay (NCI).
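Tested at 5 concentrations; 48 h exposure; 96-well plates; endpoints linearly interpolated, else capped at highest concentration. GI50: concentration for 50% inhibition of growth. TGI: total growth inhibition.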

Key:
Assay in all cases: NCI-60 cell line screen, 48 h
[1] = system: 786-0 renal
[2] = system: A498 renal
[3] = system: A549 NSCLC
[4] = system: ACHN renal
[5] = system: BT-549 breast
[6] = system: CAKI-1 renal
[7] = system: CCRF-CEM leukemia
[8] = system: COLO 205 colon
[9] = system: DU-145 prostate
[10] = system: EKVX NSCLC
[11] = system: HCC-2998 colon
[12] = system: HCT-116 colon
[13] = system: HCT-15 colon
[14] = system: HL-60(TB) leukemia
[15] = system: HOP-62 NSCLC
[16] = system: HOP-92 NSCLC
[17] = system: HS 578T breast
[18] = system: HT29 colon
[19] = system: IGROV1 ovarian
[20] = system: K-562 leukemia
[21] = system: KM12 colon
[22] = system: LOX IMVI melanoma
[23] = system: M14 melanoma
[24] = system: MALME-3M melanoma
[25] = system: MCF7 breast
[26] = system: MDA-MB-231 breast
[27] = system: MDA-MB-435
[28] = system: MOLT-4 leukemia
[29] = system: NCI-H226 lung
[30] = system: NCI-H23 lung
[31] = system: NCI-H460 lung
[32] = system: NCI-H522 lung
[33] = system: NCI/ADR-RES ovarian
[34] = system: OVCAR-3 ovarian
[35] = system: OVCAR-4 ovarian
[36] = system: OVCAR-5 ovarian
[37] = system: OVCAR-8 ovarian
[38] = system: PC-3 prostate
[39] = system: RPMI-8226 leukemia
[40] = system: RXF 393 renal
[41] = system: SF-268 CNS
[42] = system: SF-295 CNS
[43] = system: SF-539 CNS
[44] = system: SK-MEL-2 melanoma
[45] = system: SK-MEL-28 melanoma
[46] = system: SK-MEL-5 melanoma
[47] = system: SN12C renal
[48] = system: SNB-19 CNS
[49] = system: SNB-75 CNS
[50] = system: SR leukemia
[51] = system: SW-620 colon
[52] = system: T-47D breast
[53] = system: U251 CNS
[54] = system: UACC-257 melanoma
[55] = system: UACC-62 melanoma
[56] = system: SK-OV-3 ovarian
[57] = system: TK-10 renal
[58] = system: UO-31 renal

SMILES: N#Cc1c(NC(=O)c2cccc3ccccc23)sc2c1CCCC2
- GI50 [1]: 0.101 µM
- TGI [1]: > 25 µM
- GI50 [2]: 0.0171 µM
- TGI [2]: 1.83 µM
- GI50 [3]: 0.0788 µM
- TGI [3]: > 25 µM
- GI50 [4]: 0.34 µM
- TGI [4]: > 25 µM
- GI50 [5]: 0.144 µM
- TGI [5]: > 20.9 µM
- GI50 [6]: 0.0637 µM
- TGI [6]: > 25 µM
- GI50 [7]: 0.0422 µM
- TGI [7]: > 25 µM
- GI50 [8]: 0.0723 µM
- TGI [8]: 0.193 µM
- GI50 [9]: 0.0759 µM
- TGI [9]: 2.86 µM
- GI50 [10]: 0.132 µM
- TGI [10]: > 25 µM
- GI50 [11]: 0.0751 µM
- TGI [11]: > 7.9 µM
- GI50 [12]: 0.0673 µM
- TGI [12]: 5.37 µM
- GI50 [13]: 0.0775 µM
- TGI [13]: > 25 µM
- GI50 [14]: 0.0545 µM
- GI50 [15]: 0.0825 µM
- TGI [15]: > 25 µM
- GI50 [16]: 0.457 µM
- TGI [16]: > 25 µM
- GI50 [17]: 0.0156 µM
- GI50 [18]: 0.0716 µM
- TGI [18]: 0.224 µM
- GI50 [19]: 0.177 µM
- TGI [19]: > 25 µM
- GI50 [20]: 0.0115 µM
- TGI [20]: > 25 µM
- GI50 [21]: 0.105 µM
- TGI [21]: > 25 µM
- GI50 [22]: 0.0625 µM
- TGI [22]: > 25 µM
- GI50 [23]: 0.0249 µM
- TGI [23]: 0.116 µM
- GI50 [24]: 0.0174 µM
- TGI [24]: > 25 µM
- GI50 [25]: 0.09 µM
- TGI [25]: > 25 µM
- GI50 [26]: 0.148 µM
- TGI [26]: > 14.5 µM
- GI50 [27]: 0.00636 µM
- TGI [27]: 0.0193 µM
- GI50 [28]: 0.102 µM
- TGI [28]: > 25 µM
- GI50 [29]: 0.195 µM
- TGI [29]: > 25 µM
- GI50 [30]: 0.0874 µM
- TGI [30]: > 25 µM
- GI50 [31]: 0.0785 µM
- TGI [31]: > 25 µM
- GI50 [32]: 0.024 µM
- TGI [32]: 0.259 µM
- GI50 [33]: 0.0128 µM
- TGI [33]: 0.117 µM
- GI50 [34]: 0.0417 µM
- TGI [34]: 0.107 µM
- GI50 [35]: 0.19 µM
- TGI [35]: > 25 µM
- GI50 [36]: 0.139 µM
- TGI [36]: > 25 µM
- GI50 [37]: 0.0918 µM
- TGI [37]: > 25 µM
- GI50 [38]: 0.079 µM
- TGI [38]: > 25 µM
- GI50 [39]: 0.0872 µM
- TGI [39]: > 25 µM
- GI50 [40]: 0.0331 µM
- TGI [40]: 0.121 µM
- GI50 [41]: 0.171 µM
- TGI [41]: > 25 µM
- GI50 [42]: 0.0109 µM
- TGI [42]: > 25 µM
- GI50 [43]: 0.0274 µM
- TGI [43]: > 25 µM
- GI50 [44]: 0.137 µM
- TGI [44]: > 25 µM
- GI50 [45]: 0.0401 µM
- TGI [45]: > 25 µM
- GI50 [46]: 0.0844 µM
- TGI [46]: 1.62 µM
- GI50 [47]: 0.157 µM
- TGI [47]: > 25 µM
- GI50 [48]: 0.107 µM
- TGI [48]: > 25 µM
- GI50 [49]: 0.0351 µM
- TGI [49]: > 25 µM
- GI50 [50]: 0.026 µM
- TGI [50]: > 9.97 µM
- GI50 [51]: 0.0245 µM
- TGI [51]: > 25 µM
- GI50 [52]: 0.101 µM
- TGI [52]: > 20.1 µM
- GI50 [53]: 0.0622 µM
- TGI [53]: > 25 µM
- TGI [54]: > 25 µM
- GI50 [55]: 0.018 µM
- TGI [55]: > 25 µM

SMILES: COc1cc(C(=O)/C=C/c2c(-c3ccc(F)cc3)nc3ncccn23)cc(OC)c1OC
- GI50 [1]: 2.76 µM
- TGI [1]: 9.6 µM
- GI50 [2]: 2.2 µM
- TGI [2]: 7.58 µM
- GI50 [3]: 3.34 µM
- TGI [3]: > 100 µM
- GI50 [4]: 2.21 µM
- TGI [4]: 6.45 µM
- GI50 [5]: 1.8 µM
- TGI [5]: 19.4 µM
- GI50 [7]: 4.05 µM
- TGI [7]: > 100 µM
- GI50 [9]: 1.63 µM
- TGI [9]: 6.11 µM
- GI50 [10]: 2.71 µM
- TGI [10]: > 100 µM
- GI50 [11]: 1.77 µM
- TGI [11]: 3.42 µM
- GI50 [12]: 1.53 µM
- TGI [12]: 4.45 µM
- GI50 [14]: 3.33 µM
- TGI [14]: > 100 µM
- GI50 [15]: 3.12 µM
- TGI [15]: 24.5 µM
- GI50 [16]: 1.77 µM
- TGI [16]: 92.9 µM
- GI50 [17]: 2.01 µM
- TGI [17]: 11.2 µM
- GI50 [18]: 2.52 µM
- TGI [18]: 6.25 µM
- GI50 [19]: 1.93 µM
- TGI [19]: 9.53 µM
- GI50 [20]: 3.03 µM
- TGI [20]: > 100 µM
- GI50 [21]: 1.69 µM
- TGI [21]: 4.37 µM
- GI50 [24]: 2.84 µM
- TGI [24]: 58 µM
- GI50 [25]: 1.61 µM
- TGI [25]: 15.6 µM
- GI50 [26]: 2.99 µM
- TGI [26]: 16.5 µM
- GI50 [27]: 2.36 µM
- TGI [27]: 96.6 µM
- GI50 [28]: 3.75 µM
- TGI [28]: > 100 µM
- GI50 [29]: 3.08 µM
- TGI [29]: 18.9 µM
- GI50 [30]: 1.58 µM
- TGI [30]: 5.79 µM
- GI50 [32]: 2.87 µM
- TGI [32]: 10.6 µM
- GI50 [33]: 1.58 µM
- TGI [33]: 5.11 µM
- GI50 [34]: 1.4 µM
- TGI [34]: 3.64 µM
- GI50 [35]: 2.93 µM
- TGI [35]: > 100 µM
- GI50 [36]: 2.46 µM
- TGI [36]: 7.37 µM
- GI50 [37]: 2.69 µM
- TGI [37]: > 100 µM
- GI50 [38]: 4.35 µM
- TGI [38]: > 100 µM
- GI50 [39]: 2.56 µM
- TGI [39]: > 100 µM
- GI50 [40]: 1.44 µM
- TGI [40]: 4.09 µM
- GI50 [41]: 1.9 µM
- TGI [41]: 14.1 µM
- GI50 [42]: 2.43 µM
- TGI [42]: 6.53 µM
- GI50 [43]: 1.55 µM
- TGI [43]: 3.77 µM
- GI50 [44]: 2.38 µM
- TGI [44]: 6.97 µM
- GI50 [45]: 3.68 µM
- TGI [45]: > 100 µM
- GI50 [56]: 2.64 µM
- TGI [56]: 6.7 µM
- GI50 [47]: 2.26 µM
- TGI [47]: 36.1 µM
- GI50 [48]: 3.12 µM
- TGI [48]: 15.5 µM
- GI50 [49]: 2.39 µM
- TGI [49]: 9.37 µM
- GI50 [50]: 2.28 µM
- TGI [50]: > 100 µM
- GI50 [52]: 2.09 µM
- TGI [52]: 9.22 µM
- GI50 [57]: 3.25 µM
- TGI [57]: 22.6 µM
- GI50 [53]: 1.68 µM
- TGI [53]: 12.9 µM
- GI50 [54]: 3.73 µM
- TGI [54]: > 100 µM
- GI50 [58]: 0.73 µM
- TGI [58]: > 100 µM
